Data reported in CN109776561A, “化合物cytorhizins B和C及其制备方法和在制备抗肿瘤药物中的应用” (Institute of Microbiology of Guangdong Academy of Sciences, priority 2019, dated 2019).

Assays:
Format in all cases: cell-based
[1] = test system: NCI-H460 cells (NCI-H460细胞); test: SRB cytotoxicity assay, NCI-H460; settings: 72 h
[2] = test system: HepG-2 liver cancer cells (肝癌细胞HepG-2); test: SRB cytotoxicity assay, HepG-2; settings: HepG-2, SRB, 72 h
[3] = test system: MCF-7 breast cancer cells (乳腺癌细胞MCF-7); test: SRB cytotoxicity assay, MCF-7; settings: MCF-7, SRB, 72 h
[4] = test system: SF-268 nerve cancer cells (神经癌细胞SF-268); test: SRB cytotoxicity assay, SF-268; settings: SF-268, SRB, 72 h

Structure (SMILES)	IC50 [1] [µM]	IC50 [2] [µM]	IC50 [3] [µM]	IC50 [4] [µM]
COC[C@H]1O[C@]23Oc4cccc(O)c4[C@](O)(c4c(O)cc(C)c(c42)OC1(C)C)[C@H]3C [cytorhizin C]	54.7	68.6	58.6	36.8
Cc1cc(O)c2c3c1OC(C)(C)[C@@H](CCl)O[C@]31Oc3cccc(O)c3[C@@]2(O)[C@H]1C [cytorhizin B]	32.8	29.4	30.1	34.8
N.N.[Cl][Pt][Cl] [顺铂, reference compound]	1.6	2.4	3.2	3.3
